# Publication PMC7221111 (Drugs in R&D, 2020)
# Values joined by “and” are separate entries in the source; they are usually repeats but may differ in a detail not shown here. Equal entries are not always repeated. Where two headings read alike, the source gives them in different places.
# Experiments:
# [1] = cited from earlier work
# [2] = Population pharmacokinetic model of vancomycin in preterm neonates; conditions: 500 non-parametric bootstrap runs; typical individual 1.48 kg
structure (smiles),measurement,setting,value
CN[C@H](CC(C)C)C(=O)N[C@H]1C(=O)N[C@@H](CC(N)=O)C(=O)N[C@H]2C(=O)N[C@H]3C(=O)N[C@H](C(=O)N[C@H](C(=O)O)c4cc(O)cc(O)c4-c4cc3ccc4O)[C@H](O)c3ccc(c(Cl)c3)Oc3cc2cc(c3O[C@@H]2O[C@H](CO)[C@@H](O)[C@H](O)[C@H]2O[C@H]2C[C@](C)(N)[C@H](O)[C@H](C)O2)Oc2ccc(cc2Cl)[C@H]1O [vancomycin],"Clearance, range reported in a similar population of neonates",[1],0.054 to 0.07 L/h
same,"Vd, range reported in a similar population of neonates",[1],0.58 to 1.19 L
same,Variation in Vd,[1]; neonatal populations,32% and 29.4%
same,Variation in clearance,[1]; neonates,32%
same,Variation in Vd,[1]; paediatric populations,43% and 77%
same,"CL, bootstrap median (95% CI)",[2],0.1 (0.09–0.11) L/h
same,"Vd, bootstrap median (95% CI)",[2],0.86 (0.804–0.93) L
